Assay results as given in ChEMBL document CHEMBL1201862, “PubChem BioAssay data set” (2004).
Activity calls are given as the source filed them.

How the values were obtained:
[1] = cells; assay type: functional, cell-based
[2] = cells; assay type: functional, cell-based; remark: listed apart in the source
[3] = P. falciparum ATP4 D1247Y mutant growth inhibitors, dose response, NITD609-resistant line, SYBR Green, dry powder (AID 1159571); assay type: functional, cell-based;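 also: parasites synchronized at ring stage by sorbitol before testing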
[4] = P. falciparum Dd2 growth inhibitors, dose response, SYBR Green, dry powder samples (AID 1159566); assay type: functional, cell-based;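 also: potency for growth inhibition with lower SYBR green DNA signal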
[5] = P. falciparum Dd2 growth inhibitors, dose response, SYBR Green, cherry-picked samples (AID 1159567); assay type: functional, cell-based
[6] = P. falciparum 3D7-ScDHODH growth inhibitors, dose response, SYBR Green, dry powder samples (AID 1159570); assay type: functional, cell-based;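 also: parasite growth measured after 72 hours of compound exposure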
[7] = system: Vero; experiment: host cell cytotoxicity of antiviral hits, dose response, cytotoxicity control for West Nile virus antiviral project, secondary assay (AID 1650); assay type: functional; settings: Chlorocebus sabaeus
[8] = target: T1, Fructose-bisphosphate aldolase (Mycobacterium tuberculosis, UniProt P9WQA3); experiment: Fluorescence-based biochemical high throughput dose response assay for inhibitors of the fructose-bisphosphate aldolase (FBA) of M. tuberculosis.; assay type: functional
T1 sequence (P9WQA3 whole entry): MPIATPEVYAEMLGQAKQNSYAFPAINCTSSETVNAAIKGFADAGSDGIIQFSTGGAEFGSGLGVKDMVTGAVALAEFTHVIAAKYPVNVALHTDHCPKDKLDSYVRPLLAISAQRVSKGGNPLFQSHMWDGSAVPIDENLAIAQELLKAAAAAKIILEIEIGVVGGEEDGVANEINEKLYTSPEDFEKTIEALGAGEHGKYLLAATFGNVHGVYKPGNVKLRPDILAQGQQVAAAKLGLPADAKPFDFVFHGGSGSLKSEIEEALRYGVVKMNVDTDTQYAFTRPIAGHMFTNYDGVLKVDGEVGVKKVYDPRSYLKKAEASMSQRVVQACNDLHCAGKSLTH

[9] = HepG2 cell cytotoxicity, dose response, cytotoxicity control, cherry-picked samples (AID 1159577); assay type: functional, cell-based
[10] = target: T2, DNA repair protein RAD52 homolog (Homo sapiens, UniProt P43351); assay type: functional, biochemical
T2 sequence (P43351 whole entry): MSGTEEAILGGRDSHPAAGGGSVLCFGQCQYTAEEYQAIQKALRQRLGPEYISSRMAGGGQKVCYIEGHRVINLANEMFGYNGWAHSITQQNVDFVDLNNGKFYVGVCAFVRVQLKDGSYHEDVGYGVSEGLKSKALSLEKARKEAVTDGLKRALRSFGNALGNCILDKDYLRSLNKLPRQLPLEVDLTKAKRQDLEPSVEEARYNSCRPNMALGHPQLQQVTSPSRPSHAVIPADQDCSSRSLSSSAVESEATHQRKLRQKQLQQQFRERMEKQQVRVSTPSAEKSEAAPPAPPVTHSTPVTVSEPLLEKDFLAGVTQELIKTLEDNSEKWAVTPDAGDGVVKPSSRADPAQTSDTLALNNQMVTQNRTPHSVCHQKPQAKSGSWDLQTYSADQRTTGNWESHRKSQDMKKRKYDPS

[11] = target: T3, DNA repair and recombination protein RAD54-like (Homo sapiens, UniProt Q92698); experiment: inhibitors of human RAD54 branch migration, confirmation, biochemical, fluorescence, cherry-picked samples, dose series (AID 651657); assay type: functional
T3 sequence (Q92698 whole entry): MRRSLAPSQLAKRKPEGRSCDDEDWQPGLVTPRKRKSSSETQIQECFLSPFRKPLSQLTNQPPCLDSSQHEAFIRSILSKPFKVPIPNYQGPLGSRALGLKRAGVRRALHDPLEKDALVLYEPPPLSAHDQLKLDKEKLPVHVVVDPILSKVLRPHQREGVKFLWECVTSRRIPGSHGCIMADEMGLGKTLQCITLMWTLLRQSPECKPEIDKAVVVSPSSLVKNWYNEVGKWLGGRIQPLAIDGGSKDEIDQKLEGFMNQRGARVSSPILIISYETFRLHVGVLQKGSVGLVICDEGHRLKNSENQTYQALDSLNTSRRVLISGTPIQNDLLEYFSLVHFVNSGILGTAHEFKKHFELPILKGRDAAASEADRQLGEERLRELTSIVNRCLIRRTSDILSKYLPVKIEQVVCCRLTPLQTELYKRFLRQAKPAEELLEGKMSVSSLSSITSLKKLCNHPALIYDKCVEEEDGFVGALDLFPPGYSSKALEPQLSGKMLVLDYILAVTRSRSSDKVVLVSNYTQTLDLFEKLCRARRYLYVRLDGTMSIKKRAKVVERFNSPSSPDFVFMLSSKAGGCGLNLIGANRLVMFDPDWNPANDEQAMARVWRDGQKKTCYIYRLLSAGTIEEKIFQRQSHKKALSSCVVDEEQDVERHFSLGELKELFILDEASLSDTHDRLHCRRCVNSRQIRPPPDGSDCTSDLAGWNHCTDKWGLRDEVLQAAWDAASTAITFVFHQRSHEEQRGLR
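For EC50 in this document: agonist potency from rise in intracellular calcium fluorescence.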

With `O=C(Cn1cnc2ccccc21)N/N=C/c1cccs1` the IC50 [1] was > 29.9 µM (inactive) and the EC50 [2] was > 29.9 µM (inactive).

In the case of `COc1ccc2c3c(n(C)c2c1)[C@@H](CO)N(C(=O)C1CCCC1)CC31CCN(C(=O)Nc2cccc(F)c2)CC1`, the AC50 [3] is reported as 0.239 µM (active), the AC50 [4] is reported as 0.418 µM (active) and the AC50 [5] is reported as 0.672 µM (active). The AC50 [6] was 0.0947 µM (active).

For `COC1CC(OC2CCC3(C)C(CCC4C3CCC3(C)C(C5=CC(=O)OC5)C(OC(C)=O)CC43O)C2)OC(C)C1OC1OC(COC2OC(CO)C(O)C(O)C2O)C(O)C(O)C1O` (stereo not given), the CC50 [7] was 4.14 µM (active).

In the case of `COC(=O)CN(c1ccc2c(c1)OCCO2)S(=O)(=O)c1ccccc1`, the IC50 [8] is reported as > 9.99 µM (inactive).

For `C[C@H](CO)N1C[C@H](C)[C@H](CN(C)C(=O)c2cc(Cl)cc(Cl)c2)OCc2ccccc2-c2c(n(C)c3ccccc23)C1=O`, the AC50 [9] was > 39 µM (inactive) and the AC50 [5] was 4.11 µM (active).

With `COc1ccc(CCNC(=O)c2cc3c(=O)n4ccccc4nc3n(CCCN3CCOCC3)c2=N)cc1OC` the AC50 [10] was 11.5 µM (active) and the AC50 [11] was 31 µM (active).

With `O=C(CNC(=O)c1cccc(F)c1)N/N=C/C=C/c1ccccc1` the IC50 [1] was > 29.9 µM (inactive) and the EC50 [2] was > 29.9 µM (inactive).

In the case of `COc1cc(-c2cnc3c(NC=O)cc(-c4cccc(C(=O)NCCN(C)C)c4)cn23)cc(OC)c1OC`, the AC50 [10] is reported as 3.07 µM (active) and the AC50 [11] is reported as 8.57 µM (active).

In the case of `C[C@H](CO)N1C[C@H](C)[C@@H](CN(C)C(=O)Nc2cccc3ccccc23)Oc2ccc(NC(=O)Nc3ccc(C(F)(F)F)cc3)cc2C1=O`, the AC50 [3] is reported as 1.21 µM (active), the AC50 [4] is reported as 1.44 µM (active) and the AC50 [5] is reported as 1.81 µM (active). For the same molecule, the AC50 [6] was 1.37 µM (active).
